Source: PMC8286840, “Identifying SARS-CoV-2 antiviral compounds by screening for small molecule inhibitors of Nsp3 papain-like protease” (Biochemical Journal, 2021)
Counter-ions that a name gives are not always drawn. Like-named read-outs stand apart in the source and are kept apart here.

Legend:
[1] = target: T1, SARS-CoV-2 PLpro (nsp3 1564–1878) (Severe acute respiratory syndrome coronavirus 2, UniProt P0DTD1); assay: biochemical; design: FRET-quenched peptide (Pro3) cleavage by PLpro, 10 min pre-incubation, slope over 20 min, normalised to no-compound control; details: read-out: % of control remaining
[2] = target: T1, SARS-CoV-2 PLpro (nsp3 1564–1878); assay: biochemical; design: FRET-quenched peptide (Pro3) cleavage by PLpro, 10 min pre-incubation, slope over 20 min, normalised to no-compound control; details: read-out: % of control remaining; remark: listed apart in the source

Compound: CC(C)[C@H]1[C@@H]2CC[C@@H](C2)[C@@H]1N [AGN 192403 hydrochloride]
- remaining activity at 3.75 µM ([1]; Well no.=116, high concentration screen): 104%
- remaining activity at 1.25 µM ([2]; Well no.=116, low concentration screen): 101%

Compound: COc1ccc(N2C(=O)/C(=C\c3ccc([N+](=O)[O-])s3)SC2=S)cc1 [CCF642]
- remaining activity at 3.75 µM ([1]; Well no.=8774, high concentration screen): 93.7%
- remaining activity at 1.25 µM ([2]; Well no.=8774, low concentration screen): 93.3%

Compound: CCc1c(C(=O)C(N)=O)c2c(OCC(=O)O)cccc2n1Cc1ccccc1 [Varespladib (LY315920)]
- remaining activity at 3.75 µM ([1]; Well no.=4663, high concentration screen): 104%
- remaining activity at 1.25 µM ([2]; Well no.=4663, low concentration screen): 105%

Compound: NCCCCNS(=O)(=O)c1ccc2c(Cl)cccc2c1 [N-(4-Aminobutyl)-5-chloro-2-naphthalenesulfonamide hydrochloride]
- remaining activity at 3.75 µM ([1]; Well no.=55, high concentration screen): 106%
- remaining activity at 1.25 µM ([2]; Well no.=55, low concentration screen): 104%

Compound: C[C@@H]1O[C@@H](O[C@H]2[C@H](Oc3cc(O)c4c(=O)c(O)c(-c5ccc(O)cc5)oc4c3)O[C@H](CO)[C@@H](O)[C@@H]2O)[C@H](O)[C@H](O)[C@H]1O [Kaempferol-7-neohesperidoside]
- remaining activity at 3.75 µM ([1]; Well no.=3307, high concentration screen): 103%
- remaining activity at 1.25 µM ([2]; Well no.=3307, low concentration screen): 102%

Compound: COc1c(O)cc(O)c2c(=O)cc(-c3ccccc3)oc12 [Wogonin]
- remaining activity at 3.75 µM ([1]; Well no.=3735, high concentration screen): 98.6%
- remaining activity at 1.25 µM ([2]; Well no.=3735, low concentration screen): 96.1%

Compound: COc1ccc(-c2ccc3ncc4c(c3c2)n(-c2ccc(N3CCNCC3)c(C(F)(F)F)c2)c(=O)n4C)cn1 [NVP-BGT226]
- remaining activity at 3.75 µM ([1]; Well no.=4701, high concentration screen): 97.1%
- remaining activity at 1.25 µM ([2]; Well no.=4701, low concentration screen): 99%

Compound: Cn1cc(C2=C(c3cn(CCCSC(=N)N)c4ccccc34)C(=O)NC2=O)c2ccccc21 [Ro-31-8220]
- remaining activity at 3.75 µM ([1]; Well no.=2633, high concentration screen): 96.9%
- remaining activity at 1.25 µM ([2]; Well no.=2633, low concentration screen): 98.6%

Compound: CCN[C@@H]1C[C@H](N)[C@@H](O[C@H]2OC(CN)=CC[C@H]2N)[C@H](O)[C@H]1O[C@H]1OC[C@](C)(O)[C@H](NC)[C@H]1O [Netilmicin Sulfate]
- remaining activity at 3.75 µM ([1]; Well no.=4696, high concentration screen): 101%
- remaining activity at 1.25 µM ([2]; Well no.=4696, low concentration screen): 102%

Compound: NC(=O)CN1CCCC1=O [Piracetam]
- remaining activity at 3.75 µM ([1]; Well no.=1100, high concentration screen): 97.5%
- remaining activity at 1.25 µM ([2]; Well no.=1100, low concentration screen): 96.7%

Compound: CC(C)(C=O)Cc1cc(C(C)(C)C)c(O)c(C(C)(C)C)c1 [CGP-13501]
- remaining activity at 3.75 µM ([1]; Well no.=91, high concentration screen): 105%
- remaining activity at 1.25 µM ([2]; Well no.=91, low concentration screen): 105%

Compound: CCCCCCCN[C@H]1CCC[C@@H]1CCCCCCC(=O)O (racemic)
- remaining activity at 3.75 µM ([1]; Well no.=4531, high concentration screen): 98%
- remaining activity at 1.25 µM ([2]; Well no.=4531, low concentration screen): 95.3%

Compound: C[N+](C)(C)CCOC(=O)CCC(=O)OCC[N+](C)(C)C [Succinylcholine chloride]
- remaining activity at 3.75 µM ([1]; Well no.=1318, high concentration screen): 103%
- remaining activity at 3.75 µM ([1]; Well no.=6064, high concentration screen): 96.6%
- remaining activity at 1.25 µM ([2]; Well no.=1318, low concentration screen): 103%
- remaining activity at 1.25 µM ([2]; Well no.=6064, low concentration screen): 99%

Compound: NC(=O)[C@H](Cc1ccccc1)NC(=O)[C@H](Cc1c[nH]c2ccccc12)NC(=O)[C@@H]1CCCN1C(=O)[C@@H](N)Cc1ccc(O)cc1 [Endomorphin 1]
- remaining activity at 3.75 µM ([1]; Well no.=7901, high concentration screen): 97.8%
- remaining activity at 1.25 µM ([2]; Well no.=7901, low concentration screen): 102%

Compound: CCNC(=O)c1noc(-c2cc(Cl)c(O)cc2O)c1-c1ccc(OC)cc1 [VER-50589]
- remaining activity at 3.75 µM ([1]; Well no.=8670, high concentration screen): 97.5%
- remaining activity at 1.25 µM ([2]; Well no.=8670, low concentration screen): 95.3%

Compound: CC(C)C[C@H](O)C(=O)O [(S)-Leucic acid]
- remaining activity at 3.75 µM ([1]; Well no.=6633, high concentration screen): 109%
- remaining activity at 1.25 µM ([2]; Well no.=6633, low concentration screen): 108%

Compound: CC(=O)N[C@@H](CSC/C=C(\C)CC/C=C(\C)CCC=C(C)C)C(=O)O [Acetyl-farnesyl-cysteine]
- remaining activity at 3.75 µM ([1]; Well no.=4342, high concentration screen): 102%
- remaining activity at 1.25 µM ([2]; Well no.=4342, low concentration screen): 102%

Compound: CCCCC[C@H](O)/C=C/C=C\C/C=C\CCCCCCC(=O)O [15(S)-HETrE]
- remaining activity at 3.75 µM ([1]; Well no.=4229, high concentration screen): 106%
- remaining activity at 1.25 µM ([2]; Well no.=4229, low concentration screen): 99.3%

Compound: C/C=C1/CN2CC[C@]34C(=C(C=O)[C@H]1C[C@H]23)Nc1ccccc14 [Norfluorocurarine]
- remaining activity at 3.75 µM ([1]; Well no.=3165, high concentration screen): 97.4%
- remaining activity at 1.25 µM ([2]; Well no.=3165, low concentration screen): 95.2%

Compound: CC(=O)N[C@@H](Cc1ccccc1)C(=O)O [NSC 45699]
- remaining activity at 3.75 µM ([1]; Well no.=8710, high concentration screen): 106%
- remaining activity at 1.25 µM ([2]; Well no.=8710, low concentration screen): 107%

Compound: O=C(O)[C@H]1CCCN1 [(R)-pyrrolidine-2-carboxylic acid]
- remaining activity at 3.75 µM ([1]; Well no.=8700, high concentration screen): 101%
- remaining activity at 1.25 µM ([2]; Well no.=8700, low concentration screen): 106%

Compound: CN1CCN(C(=O)/C=C/c2ccc([N+](=O)[O-])o2)CC1 [NSC59984]
- remaining activity at 3.75 µM ([1]; Well no.=6644, high concentration screen): 106%
- remaining activity at 1.25 µM ([2]; Well no.=6644, low concentration screen): 105%

Compound: Cc1ccccc1CN1C(=O)C2=C(CCN(Cc3ccccc3)C2)N2CCN=C12 [TIC10]
- remaining activity at 3.75 µM [1]: 96.2%
- remaining activity at 1.25 µM [2]: 97.7%

Compound: NCC(O)c1ccc(O)cc1 (racemic)
- remaining activity at 3.75 µM ([1]; Well no.=1038, high concentration screen): 95.7%
- remaining activity at 1.25 µM ([2]; Well no.=1038, low concentration screen): 97.4%

Compound: O[C@H]1[C@H](O)[C@@H](O)[C@H](O)[C@@H](O)[C@H]1O [i-Inositol]
- remaining activity at 3.75 µM ([1]; Well no.=6495, high concentration screen): 101%
- remaining activity at 1.25 µM ([2]; Well no.=6495, low concentration screen): 98.4%

Compound: C[C@H](CCC(=O)NCC(=O)O)[C@H]1CC[C@H]2[C@@H]3[C@@H](O)C[C@@H]4C[C@H](O)CC[C@]4(C)[C@H]3CC[C@]12C [Glycoursodeoxycholic acid]
- remaining activity at 3.75 µM ([1]; Well no.=7311, high concentration screen): 106%
- remaining activity at 1.25 µM ([2]; Well no.=7311, low concentration screen): 108%

Compound: NNCc1cccc(O)c1 [3-Hydroxybenzylhydrazine dihydrochloride]
- remaining activity at 3.75 µM ([1]; Well no.=568, high concentration screen): 97.9%
- remaining activity at 1.25 µM ([2]; Well no.=568, low concentration screen): 104%

Compound: CC(N)=NCCC[C@H](N)C(=O)O [L-N5-(1-Iminoethyl)ornithine hydrochloride]
- remaining activity at 3.75 µM ([1]; Well no.=967, high concentration screen): 101%
- remaining activity at 1.25 µM ([2]; Well no.=967, low concentration screen): 101%

Compound: C[N+]1(C)CCC(OC(=O)C(O)(c2ccccc2)C2CCCC2)C1 (centres unmarked) [Glycopyrrolate]
- remaining activity at 3.75 µM ([1]; Well no.=7471, high concentration screen): 103%
- remaining activity at 1.25 µM ([2]; Well no.=7471, low concentration screen): 102%

Compound: CSC(=N)NCCC[C@H](N)C(=O)O [S-Methyl-L-thiocitrulline acetate]
- remaining activity at 3.75 µM ([1]; Well no.=1024, high concentration screen): 101%
- remaining activity at 1.25 µM ([2]; Well no.=1024, low concentration screen): 101%

Compound: c1ccc(-c2cnc(Nc3ccc(OCCN4CCCC4)cc3)s2)cc1 [Flt-3 Inhibitor III]
- remaining activity at 3.75 µM ([1]; Well no.=2421, high concentration screen): 98.8%
- remaining activity at 1.25 µM ([2]; Well no.=2421, low concentration screen): 99.3%

Compound: O=C1c2cccc3c2[C@H](CCC3)CN1[C@@H]1CN2CCC1CC2 [Palonosetron HCl]
- remaining activity at 3.75 µM ([1]; Well no.=4923, high concentration screen): 98.2%
- remaining activity at 1.25 µM ([2]; Well no.=4923, low concentration screen): 99.3%

Compound: Oc1cc(O)c(Cl)cn1 [Gimeracil]
- remaining activity at 3.75 µM ([1]; Well no.=5056, high concentration screen): 104%
- remaining activity at 1.25 µM ([2]; Well no.=5056, low concentration screen): 101%

Compound: CCCCCCCCCCCCCCCCn1cc[n+](Cc2ccccc2)c1C [eEF-2 Kinase Inhibitor, NH125]
- remaining activity at 3.75 µM ([1]; Well no.=2790, high concentration screen): 108%
- remaining activity at 1.25 µM ([2]; Well no.=2790, low concentration screen): 102%

Compound: COc1cc2nccc(Oc3ccc(NC(=O)NC4CC4)c(Cl)c3)c2cc1C(N)=O [E7080]
- remaining activity at 3.75 µM ([1]; Well no.=2981, high concentration screen): 98.1%
- remaining activity at 1.25 µM ([2]; Well no.=2981, low concentration screen): 98%

Compound: CNCCc1ccc(O)c(O)c1 [N-Methyldopamine hydrochloride]
- remaining activity at 3.75 µM ([1]; Well no.=693, high concentration screen): 91.2%
- remaining activity at 1.25 µM ([2]; Well no.=693, low concentration screen): 90.9%
